Laboratory results reported in patent US20120101100A1 (priority 2008, published 2012).

Molecular target: S. aureus GyrB ATPase (Staphylococcus aureus, UniProt P0A0K8)
Experiment: S. aureus (SAU) GyrB ATPase inhibition, malachite green phosphate detection (E. coli GyrA + S. aureus GyrB)
Type: biochemical
Settings: compound concentration of 1.0 μM unless otherwise noted; average value where assay was carried out more than once; read-out: S. aureus (SAU) GyrB ATPase % Inhibition
Summary of the method: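 Phosphate from ATP hydrolysis (500 μM ATP) read as malachite green/molybdate absorbance at 650 nm after acid quench. Reaction: 1.25 nM S. aureus GyrB plus 1.25 nM E. coli GyrA, sheared DNA, Hepes pH 7.5 with Mg2+. IC50 fitted over 10 concentrations, normalised to DMSO (2%) and novobiocin (2 μM) controls.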

Chain of S. aureus GyrB ATPase (P0A0K8 whole entry): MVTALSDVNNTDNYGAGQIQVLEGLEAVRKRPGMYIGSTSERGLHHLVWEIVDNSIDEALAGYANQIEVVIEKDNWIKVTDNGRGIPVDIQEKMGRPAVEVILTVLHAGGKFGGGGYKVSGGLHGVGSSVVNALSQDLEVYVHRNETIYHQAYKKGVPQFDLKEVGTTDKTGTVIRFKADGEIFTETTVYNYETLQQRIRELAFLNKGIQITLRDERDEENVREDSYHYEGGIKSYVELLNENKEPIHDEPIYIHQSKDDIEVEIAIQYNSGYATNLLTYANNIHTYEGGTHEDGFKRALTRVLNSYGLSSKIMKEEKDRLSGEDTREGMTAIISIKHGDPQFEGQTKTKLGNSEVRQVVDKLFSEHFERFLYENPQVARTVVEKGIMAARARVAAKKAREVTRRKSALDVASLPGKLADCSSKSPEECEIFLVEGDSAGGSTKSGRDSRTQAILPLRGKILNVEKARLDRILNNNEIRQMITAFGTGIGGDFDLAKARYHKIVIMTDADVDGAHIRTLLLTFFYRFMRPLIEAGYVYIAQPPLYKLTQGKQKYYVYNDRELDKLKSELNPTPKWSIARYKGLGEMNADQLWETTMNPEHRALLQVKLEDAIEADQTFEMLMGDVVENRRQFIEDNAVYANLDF
Chain of S. aureus GyrB ATPase (P0AES4 whole entry, further chain): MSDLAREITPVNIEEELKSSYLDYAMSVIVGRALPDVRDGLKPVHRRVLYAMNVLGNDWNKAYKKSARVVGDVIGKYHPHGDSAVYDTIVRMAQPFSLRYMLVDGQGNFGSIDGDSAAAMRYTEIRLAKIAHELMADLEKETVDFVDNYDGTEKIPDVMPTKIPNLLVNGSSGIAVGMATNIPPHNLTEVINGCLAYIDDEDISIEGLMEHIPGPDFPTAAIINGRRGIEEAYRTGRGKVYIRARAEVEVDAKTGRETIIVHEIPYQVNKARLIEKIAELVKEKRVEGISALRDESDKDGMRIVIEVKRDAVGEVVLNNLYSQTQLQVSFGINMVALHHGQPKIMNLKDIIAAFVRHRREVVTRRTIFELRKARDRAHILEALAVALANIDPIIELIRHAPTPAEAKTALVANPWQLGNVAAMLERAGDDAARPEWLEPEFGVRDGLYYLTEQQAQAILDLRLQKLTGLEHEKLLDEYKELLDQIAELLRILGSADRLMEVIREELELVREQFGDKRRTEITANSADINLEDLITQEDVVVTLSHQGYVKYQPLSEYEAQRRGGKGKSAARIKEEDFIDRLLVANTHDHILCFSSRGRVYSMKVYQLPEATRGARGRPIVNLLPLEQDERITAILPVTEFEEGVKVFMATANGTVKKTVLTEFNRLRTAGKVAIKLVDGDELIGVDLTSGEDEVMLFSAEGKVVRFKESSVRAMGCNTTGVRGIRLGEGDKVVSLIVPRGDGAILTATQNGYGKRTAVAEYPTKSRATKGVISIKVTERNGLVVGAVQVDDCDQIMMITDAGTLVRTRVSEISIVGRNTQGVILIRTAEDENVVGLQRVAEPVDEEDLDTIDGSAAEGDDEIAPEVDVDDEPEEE

Row | SMILES | inhibition at 1 µM [%]
1 | CCNC(=O)Nc1cc(-c2nc(C(F)(F)F)cs2)c(-c2cncc(-c3nnc(N4CCN(C)CC4)o3)c2)cn1 [Example 155] | 96
2 | CCNC(=O)Nc1cc(-c2nc(C(F)(F)F)cs2)c(-c2cncc(-c3nnc(N4CCN(C(C)=O)CC4)o3)c2)cn1 [Example 156] | 95
3 | CCNC(=O)Nc1cc(-c2nc(C(F)(F)F)cs2)c(-c2cncc(-c3nnc(NCCN(C)C)o3)c2)cn1 [Example 157] | 96
4 | CCNC(=O)Nc1cc(-c2nc(C(F)(F)F)cs2)c(-c2cncc(-c3nn(C(=O)N(C)C)c(=O)o3)c2)cn1 [Example 158, 5-(6′-(3-Ethylureido)-4′-(4-(trifluoromethyl)thiazol-2-yl)-3,3′-bipyridin-5-yl)-N,N-dimethyl-2-oxo-1,3,4-oxadiazole-3(2H)-carboxamide] | 97
5 | CCNC(=O)Nc1cc(-c2nc(C(F)(F)F)cs2)c(-c2cncc(-c3nn(C(=O)N4CCCC4)c(=O)o3)c2)cn1 [Example 159] | 97
6 | CCNC(=O)Nc1cc(-c2nc(C(F)(F)F)cs2)c(-c2cncc(-c3nn(CCOC)c(=O)o3)c2)cn1 [Example 160] | 98
7 | CCNC(=O)Nc1cc(-c2nc(C(F)(F)F)cs2)c(-c2cncc(-c3nn(C(C)=O)c(=O)o3)c2)cn1 [Example 161] | 97
8 | CCNC(=O)Nc1cc(-c2nc(C(F)(F)F)cs2)c(-c2cncc(-c3nn(CCO)c(=O)o3)c2)cn1 [Example 162] | 98
9 | CCNC(=O)Nc1cc(-c2nc(C(F)(F)F)cs2)c(-c2cncc(/C(N)=N/O)c2)cn1 [Example 163, 6′-(3-Ethylureido)-N′-hydroxy-4′-(4-(trifluoromethyl)thiazol-2-yl)-3,3′-bipyridine-5-carboximidamide] | 96
10 | CCNC(=O)Nc1cc(-c2nc(C(F)(F)F)cs2)c(-c2cncc(C(=N)N)c2)cn1 [Example 164, 6′-(3-Ethylureido)-4′-(4-(trifluoromethyl)thiazol-2-yl)-3,3′-bipyridine-5-carboximidamide] | 96
11 | CCNC(=O)Nc1cc(-n2ccc(C(F)(F)F)n2)c(-c2cncc(-c3nnc([C@@H](N)C(C)C)o3)c2)cn1 [Example 165] | 98
12 | CCNC(=O)Nc1cc(-c2nc(C(F)(F)F)cs2)c(-c2cncc(-c3nnc(C4CC4)o3)c2)cn1 [Example 166, 1-(5′-(5-Cyclopropyl-1,3,4-oxadiazol-2-yl)-4-(4-(trifluoromethyl)thiazol-2-yl)-3,3′-bipyridin-6-yl)-3-ethylurea] | 72
13 | CCCNC(=O)Nc1cc(-c2nc(C(F)(F)F)cs2)c(-c2cc(-c3nnc(C)o3)cnc2OCCN(C)C)cn1 [Example 167] | 96
14 | CCCNC(=O)Nc1cc(-c2nc(C(F)(F)F)cs2)c(-c2cc(-c3nnc(C)o3)cnc2OCCN2CCCC2)cn1 [Example 168] | 69
15 | CCCNC(=O)Nc1cc(-c2nc(C(F)(F)F)cs2)c(-c2cc(-c3nnc(C)o3)cnc2OC2CCOCC2)cn1 [Example 169, 1-(5′-(5-Methyl-1,3,4-oxadiazol-2-yl)-2′-(tetrahydro-2H-pyran-4-yloxy)-4-(4-(trifluoromethyl)thiazol-2-yl)-3,3′-bipyridin-6-yl)-3-propylurea] | 96
16 | CCCNC(=O)Nc1cc(-c2nc(C(F)(F)F)cs2)c(-c2cc(-c3n[nH]c(=O)o3)cnc2OCCN2CCCC2)cn1 [Example 171] | 106
17 | CCCNC(=O)Nc1cc(-c2nc(C(F)(F)F)cs2)c(-c2cncc(-c3nnc(C)o3)c2)cn1 [Example 173, 1-(5′-(5-methyl-1,3,4-oxadiazol-2-yl)-4-(4-(trifluoromethyl)thiazol-2-yl)-3,3′-bipyridin-6-yl)-3-propylurea] | 95
18 | CCCNC(=O)Nc1cc(-c2nc(C(F)(F)F)cs2)c(-c2ccnc(-c3nnc(O)o3)c2)cn1 [Example 175, 1-(2′-(5-hydroxy-1,3,4-oxadiazol-2-yl)-4-(4-(trifluoromethyl)thiazol-2-yl)-3,4′-bipyridin-6-yl)-3-propylurea] | 93
19 | CCNC(=O)Nc1cc(-c2nc(C(F)(F)F)cs2)c(-c2cncc(-c3nn(C(=O)N4CCOCC4)c(=O)o3)c2)cn1 [Example 176] | 98
20 | CCNC(=O)Nc1cc(-c2nc(C(F)(F)F)cs2)c(-c2cncc(-c3nn(C(=O)N4CCCCC4)c(=O)o3)c2)cn1 [Example 177] | 86
21 | CCNC(=O)Nc1cc(-c2nc(C(F)(F)F)cs2)c(-c2cncc(-c3nnc(N4CC[C@@H](O)C4)o3)c2)cn1 [Example 178] | 97
22 | CCNC(=O)Nc1cc(-c2nc(C(F)(F)F)cs2)c(-c2cncc(-c3nnc(N4CC[C@H](O)C4)o3)c2)cn1 [Example 179] | 101
23 | CCNC(=O)Nc1cc(-c2nc(C(F)(F)F)cs2)c(-c2cncc(-c3nnc(N4CCC(O)CC4)o3)c2)cn1 [Example 180] | 96
24 | CCNC(=O)Nc1cc(-c2nc(C(F)(F)F)cs2)c(-c2cncc(-c3nnc(N4CCCC(O)C4)o3)c2)cn1 (stereo not shown) [Example 181] | 97
25 | CCNC(=O)Nc1cc(-c2nc(C(F)(F)F)cs2)c(-c2cncc(-c3nnc(N4CC(O)C4)o3)c2)cn1 [Example 182] | 99
26 | CCNC(=O)Nc1cc(-c2nc(C(F)(F)F)cs2)c(-c2cncc(-c3nnc([C@@H](N)C(C)C)o3)c2)cn1 [Example 183] | 96
27 | CCNC(=O)Nc1cc(-c2nc(-c3cnn(C)c3)cs2)c(-c2cncc(S(N)(=O)=O)c2)cn1 [Example 185] | 99
28 | CCNC(=O)Nc1cc(-c2nc(C(F)(F)F)cs2)c(-c2cc(-c3n[nH]c(=O)o3)cnc2OCCN2CCCC2)cn1 [Example 186] | 110

Row | SMILES | inhibition at 1 µM [%]
29 | CCNC(=O)Nc1cc(-c2nc(C(F)(F)F)cs2)c(-c2cc(-c3n[nH]c(=O)o3)cnc2OC2CCOCC2)cn1 [Example 187] | 100
30 | CCNC(=O)Nc1cc(-c2nc(C(F)(F)F)cs2)c(-c2nc(-c3n[nH]c(=O)o3)cs2)cn1 [Example 188] | 97
31 | CCNC(=O)Nc1cc(-c2nc(C(F)(F)F)cs2)c(-c2cnc(OC)c(-c3n[nH]c(=O)o3)c2)cn1 [Example 189] | 103
32 | CCNC(=O)Nc1cc(-c2nc(C(F)(F)F)cs2)c(-c2cnc(-c3n[nH]c(=O)o3)cn2)cn1 [Example 190] | 100
33 | CCNC(=O)Nc1cc(-c2nc(C(F)(F)F)cs2)c(-c2ccc(-c3n[nH]c(=O)o3)nn2)cn1 [Example 191] | 99
34 | CCNC(=O)Nc1cc(-c2nnc(-c3ccccc3)o2)c(-c2ccnc(-c3n[nH]c(=O)o3)c2)cn1 [Example 192] | 101
35 | CCNC(=O)Nc1cc(-c2nnc(-c3ccccc3)o2)c(-c2nc(-c3n[nH]c(=O)o3)cs2)cn1 [Example 193] | 89
36 | CCNC(=O)Nc1cc(-c2nnc(-c3ccccc3)o2)c(-c2ncc(-c3n[nH]c(=O)o3)s2)cn1 [Example 194] | 101
37 | CCNC(=O)Nc1cc(-c2nnc(-c3ccccc3)o2)c(-c2cnc(-c3n[nH]c(=O)o3)cn2)cn1 [Example 195] | 98
38 | CCNC(=O)Nc1cc(-c2nnc(-c3ccccc3)o2)c(-c2cncc(-c3n[nH]c(=O)o3)c2)cn1 [Example 196] | 118
39 | CCNC(=O)Nc1cc(-c2nnc(-c3ccccc3)o2)c(-c2cnc(OC)c(-c3n[nH]c(=O)o3)c2)cn1 [Example 197] | 106
40 | CCNC(=O)Nc1cc(-c2nnc(-c3ccc(F)cc3)o2)c(-c2cncc(-c3n[nH]c(=O)o3)c2)cn1 [Example 198] | 104
41 | CCNC(=O)Nc1cc(-c2nc(-c3ccccc3)cs2)c(-c2nc(-c3ncccn3)c(-c3n[nH]c(=O)o3)s2)cn1 [Example 199] | 94
42 | CCNC(=O)Nc1cc(-c2nc(-c3ccccc3)cs2)c(-c2nc(-c3ncnn3C)c(-c3n[nH]c(=O)o3)s2)cn1 [Example 200] | 93
43 | CCNC(=O)Nc1cc(-c2nc(-c3ccccn3)cs2)c(-c2nc(-c3ncccn3)c(-c3n[nH]c(=O)o3)s2)cn1 [Example 201] | 107
44 | CCNC(=O)Nc1cc(-c2nc(-c3cccc(OC)n3)cs2)c(-c2cncc(-c3n[nH]c(=O)o3)c2)cn1 [Example 202] | 43
45 | CCNC(=O)Nc1cc(-c2nc(-c3ccc(OC)nc3)cs2)c(-c2cncc(-c3n[nH]c(=O)o3)c2)cn1 [Example 203] | 104
46 | CCNC(=O)Nc1cc(-c2nc(-c3cccnc3F)cs2)c(-c2cncc(-c3n[nH]c(=O)o3)c2)cn1 [Example 204] | 101
47 | CCNC(=O)Nc1cc(-c2nc(-c3cnn(C)c3)cs2)c(-c2cnc(OC)c(-c3n[nH]c(=O)o3)c2)cn1 [Example 205] | 100
48 | CCNC(=O)Nc1cc(-c2nc(-c3cnn(C)c3)cs2)c(-c2cncc(-c3n[nH]c(=O)o3)n2)cn1 [Example 206] | 99
49 | CCNC(=O)Nc1cc(-c2nc(-c3cccnc3OCCOC)cs2)c(-c2cnc(OC)c(-c3n[nH]c(=O)o3)c2)cn1 [Example 207] | 101
50 | CCNC(=O)Nc1cc(-c2nc(-c3cccnc3OCCOC)cs2)c(-c2cncc(-c3n[nH]c(=O)o3)c2)cn1 [Example 208] | 100
51 | CCNC(=O)Nc1cc(-c2nc(C3CCCC3)cs2)c(-c2cncc(-c3n[nH]c(=O)o3)c2)cn1 [Example 209] | 95
52 | CCNC(=O)Nc1cc(-c2nc(C3CC3)cs2)c(-c2cncc(-c3n[nH]c(=O)o3)c2)cn1 [Example 210] | 65
53 | CCNC(=O)Nc1cc(-c2nc(C3CCCCC3)cs2)c(-c2cncc(-c3n[nH]c(=O)o3)c2)cn1 [Example 211] | 109
54 | CCNC(=O)Nc1cc(-c2nc(C3CCOC(C)(C)C3)cs2)c(-c2cncc(-c3n[nH]c(=O)o3)c2)cn1 (stereo not shown) [Example 212] | 97
55 | CCNC(=O)Nc1cc(-c2nc(C3CCN(C(=O)n4ccnc4)CC3)cs2)c(-c2cncc(-c3n[nH]c(=O)o3)c2)cn1 [Example 213] | 95
